Experimental findings from publication PMC3231940, “Disposition, metabolism and mass balance of [^14C]apremilast following oral administration” (Xenobiotica; the Fate of Foreign Compounds in Biological …, 2011) are described below.

A short description of data set [1]: Metabolite profiling by HPLC radiochromatography in plasma, urine and faeces. The settings on record: for Plasma (% AUC relative to TRA); share of circulating radioactivity: AUC0-t (unchanged drug or metabolite)/AUC0-48 (TRA) * 100%; for Tmax: male, median and range; for Plasma Cmax: plasma radioactivity concentrations and radiochromatography; for % of dose excreted, urine: urine collected up to 48-h post-dose. The class given is in vivo, human. Also on record: key to Plasma (% AUC relative to TRA); share of circulating radioactivity / % of dose excreted, urine: ND: not detected; D: detected by MS, but at concentrations too low to accurately quantify by radiochromatography. As for the experimental part:
Individual plasma samples collected from all subjects at 0.5, 1, 2.5, 8, 24, 36 and 48 h post-dose were analysed for metabolite profiling. A pooled sample (equal volume from 0.5,1,2.5,8 and 24 h) from subject 1 was also used for metabolite profiling. Three volumes of acetonitrile were added to each sample, followed by mixing and centrifu-gation. The supernatant was removed and the pellet was washed twice with acetonitrile. The combined superna-tants were evaporated to dryness under a stream of nitrogen. The residues were re-suspended in acetonitrile: 1% formic acid in water (1:1), assayed for extraction recovery and analysed for metabolite profiling.
For each subject, urine samples were pooled using an equal percentage by volume of the 0-4, 4-8, 8-12 and 12-24-h samples. The 24-48-h urine sample from each subject and a pool of the 0-168-h urine samples from subject 1 were also analysed for metabolite profiling. Samples were mixed and centrifuged prior to the supernatants being transferred to fresh tubes for metabolite profiling analysis.
Faecal homogenates for metabolite profiling were pooled using an equal percentage by weight to generate two pools (0-48 h and 48-96 h) for each subject. An additional pool (0-168 h) was prepared using the samples collected from subject 1. An aliquot (approximately 6 g) of each pool was extracted with three volumes of acetonitrile; samples were mixed and centrifuged. The supernatant was removed and the pellets were extracted twice with an additional 12 mL of acetonitrile each time. The combined supernatants were evaporated to dryness under a stream of nitrogen and the residue was re-suspended in a small volume (approximately 400 μL) of acetonitrile: 1% formic acid in water (1:1). Samples were assayed for extraction recovery prior to metabolite profiling.
HPLC analysis for metabolite profiling was performed using a Shimadzu LC-10ADVP (Shimadzu Corp., Columbia, MD) or a Waters 2695 Alliance Separation Module (Waters Corp., Milford, MA) with the autosampler set to an ambient temperature of approximately 22°C. ASPD-10A VPUV-Vis Detector or a Waters 996 Photodiode array detector set to 254 nm was used to detect UV absorbance. [^14C]Apremilast and metabolites were separated using a Phenomenex Luna C 18(2) column (150 × 4.6 mm, 3 μm; Phenomenex, Torrance, CA) equipped with a RP-18 guard column (15×3.2 mm, 7 μm) or using an ACE 3 C18 column (150 × 4.6 mm, 3 μm; Advanced Chromatography Technologies, Aberdeen, Scotland) equipped with an ACE 3 guard column (10×3mm, 3 μm). The mobile phases used were 0.4% formic acid in water; pH 3.2 with ammonium hydroxide (mobile phase A) and acetonitrile (mobile phase B). The column temperature was 30°C and the flow rate was 0.7mL/min. The linear gradient was delivered as follows: 0-5 min to 100% A; 5-20 min to 85% A; 20-30 min hold at 85% A; 30-50 min to 65% A; 50-60 min to 60% A; 60-70 min to 50% A; 70-75 min to 0% A; hold at 0% A until 80 min; return to initial conditions over 2 min.
Radioactivity profiles for excreta were determined by radiochromatography using liquid chromatography-accurate radioisotope counting stop-flow system (LC-ARC; AIM Research Company, Wilmington, DE). Radioactivity was detected using a β-Ram Radioflow detector (IN/US Systems, Brandon, FL) equipped with a 1300-μL liquid cell. Liquid scintillation cocktail and column eluate were mixed at a ratio of 2.5:1. Radioactive peaks were quantified using LC-ARC data handling software. Plasma radioactivity profiles were determined by collecting the column eluate into 96-well Deepwell LumaPlates at a rate of 0.25 min/fraction. The plates were dried and the radioactivity in each well determined using a PerkinElmer TopCount NXT Microplate Scintillation Counter. HPLC radiochromatograms were reconstructed using LC-ARC data handling software.
Pharmacokinetic data were generated by non-compartmental analysis of plasma or whole blood versus time profiles using WinNonlin (version 4.1, Enterprise Edition). […]

The test system of data set [2] is PDE4 enzyme isolated from U937 human monocytic cells. Kind of data set: PDE4 inhibition, cAMP hydrolysis assay. The class given is biochemical. The settings on record: for IC50: PDE4 from U937 cells, cAMP hydrolysis. As for the experimental part: (§1) PDE4 enzyme was isolated from U937 human monocytic cells and used for testing inhibition in a cAMP hydrolysis assay as previously described ([Schafer et al. 2010]). For the TNF-α production assay, human peripheral blood mono-nuclear cells (PBMC) were isolated from buffy coat of normal donor blood units (Blood Center of New Jersey, East Orange, NJ) by density centrifugation over Ficoll Hypaque (Pharmacia, Piscataway, NJ). Cells were cultured in RPMI 1640 (Life Technologies, Grand Island, NY) supplemented with 5% AB^+ human serum (Gemini Bio-products, Woodland, CA), 2-mM L-glutamine, 100-U/mL penicillin and 100-μg/mL streptomycin (Life Technologies). PBMC (2×10^5 cells) were plated in 96-well flat-bottom Costar tissue culture plates (Corning, NY) in duplicate. Cells were stimulated with lipopolysaccharides (LPS) (from Salmonella abortus equi; Sigma cat.no. L-1887, St.Louis, MO) at a final concentration of 1 ng/mL in the absence or presence of compounds. The compounds were dissolved in DMSO (Sigma) and subsequent dilutions were done in culture medium immediately before use. The compounds were added to cells 1 h before LPS stimulation. The cells were incubated for 16-18 h at 37°C in 5% CO2, and super-natants were then collected, diluted with culture medium and assayed for TNF-α levels by enzyme-linked immunosorbent assay (ThermoFisher, Rockford, IL). Fifty percent inhibitory concentrations (IC50) for the PDE4 enzymatic and TNF-α assay were calculated by non-linear regression analysis using Prism 5.1 (GraphPad Software). Regression curves were sigmoidal dose response curves with maximum and minimum constrained to 100% and 0%, respectively.

For data set [3], the system named is TNF-α production by human peripheral blood mononuclear cells. Kind of data set: TNF-α production assay in LPS-stimulated PBMC. The class given is cell-based. The settings on record: LPS 1 ng/mL, 16-18 h, ELISA. Here is the method: as §1
Setting [4] is: human, plasma, radiochromatography, single oral 20-mg dose.
[5] abbreviates: single oral 20-mg dose, mean ± SD.
Where [6] appears, read: radiochromatography, single oral 20-mg dose, mean ± SD.

The structures appear in SMILES notation.

The term Tmax denotes the time at which the peak concentration occurs. The IC50 is the concentration needed to halve the response being measured. For the molecule `CCOc1cc([C@@H](CS(C)(=O)=O)N2C(=O)c3cccc(N)c3C2=O)ccc1OC1OC(C(=O)O)C(O)C(O)C1O` (some centres unmarked) [Metabolite M14, O-desmethyl, N-deacetyl apremilast glucuronide], in data set [1], the “Plasma (% AUC relative to TRA); share of circulating radioactivity” value (from here on “Plasma (% AUC relative to TRA); share”) turned out to be 4.9% and the “% of dose excreted, urine” value was 4.0 % of dose. For the same molecule, in data set [1] (setting [4]), the Tmax was 2.5 h. Moreover, the “Plasma Cmax” value in data set [1] (setting [5]) came out at 9.4±4.3 ngEq/mL. Moreover, in data set [1] (setting [6]), the “Plasma AUC0-t” value worked out at 269±146 ngEq*h/mL. In data set [2], this molecule showed an IC50 of over 80 µM. Also, in data set [3], the concentration for half-maximal inhibition (IC50) was over 10 µM.

As to `CCOc1cc([C@@H](CS(C)(=O)=O)N2C(=O)c3cccc(NC(=O)COC4OC(C(=O)O)C(O)C(O)C4O)c3C2=O)ccc1OC` (some centres unmarked) [Metabolite M16], in data set [1], the “Plasma (% AUC relative to TRA); share” value came out at 6.6% and the “% of dose excreted, urine” value is on record as 0.6 % of dose. Also, the half-life in data set [1] (human, plasma, radiochromatography, single oral 20-mg dose, mean ± SD, read-out: Plasma t½ (converted)) was 11 ± 2.4 h. The Tmax in data set [1] (setting [4]) came out at 5.3 h. Further, the “Plasma Cmax” value in data set [1] (setting [5]) amounted to 27.6±26.0 ngEq/mL. Further, in data set [1] (setting [6]), the “Plasma AUC0-t” value was 363 ±54 ngEq*h/mL and the “Plasma AUC0-∞” value was 389±91 ngEq*h/mL. Also, it took 6.5 µM to reach half-maximal inhibition in data set [2] (IC50). In data set [3], this molecule yielded an IC50 of over 10 µM.

For `CCOc1cc([C@@H](CS(C)(=O)=O)N2C(=O)c3cccc(NC(=O)CO)c3C2=O)ccc1OC` [Metabolite M17], the “Plasma (% AUC relative to TRA); share” value in data set [1] is “D”. The “% of dose excreted, faeces” value in data set [1] (faeces collected up to 96-h post-dose) is listed as 0.9 % of dose. Also, in data set [1] (plasma), the “Concentration in circulation relative to apremilast” value was under 2%. In data set [1], the “% of dose excreted, urine” value was 1.2 % of dose. Besides, the IC50 in data set [2] is 0.094 µM; in data set [3] it was 0.021 µM. The “PDE4 and TNF-α inhibition activity compared with apremilast” value in data set [2] (both assays, in words) was “IC50 values similar to those of apremilast”.
